The target of one experiment is T1, Human Leukocyte Elastase (Homo sapiens, UniProt P08246).
T1 sequence (P08246 30-267): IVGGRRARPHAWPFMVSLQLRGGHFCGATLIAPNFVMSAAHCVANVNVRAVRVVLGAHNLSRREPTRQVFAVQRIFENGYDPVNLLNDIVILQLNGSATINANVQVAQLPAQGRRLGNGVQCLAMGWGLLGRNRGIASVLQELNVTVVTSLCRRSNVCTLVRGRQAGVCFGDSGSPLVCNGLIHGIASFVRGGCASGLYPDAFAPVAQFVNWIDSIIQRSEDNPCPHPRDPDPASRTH
The experiment can be described thus: Kinetic assay: inhibition of Human Leukocyte Elastase. The experiment is classed as biochemical. As to conditions: Table V.

In experiment [1] the target is Human Pancreatic Chymotrypsin. The experiment can be described thus: Kinetic assay: inhibition of Human Pancreatic Chymotrypsin. The experiment is classed as biochemical. The following applies: Table V.
Experiment [2] has as its target SDS-activated 20S proteasome from rabbit muscle (Oryctolagus cuniculus, UniProt G1SU71+G1T4Q9). The experiment is described as follows: Kinetic assay: inhibition of the 20S proteasome. The experiment is classed as biochemical. How it is done:
(§1) P, AA^1, AA^2, AA^3, and Z^1 and Z^2 represent the structures present on formula (1) or (2). The protocol for the kinetic assay described in Tables II-V is as described in Rock et al., Cell 78:761-771 (1994). In these tables, Ki values are reported, which are dissociation constants for the equilibrium that is established when enzyme and inhibitor interact to form the enzyme:inhibitor complex. The reactions were performed using SDS-activated 20S proteasome from rabbit muscle. The substrate used was Suc-LLVY-AMC.

The target of the next experiment is T2, Cathepsin G (Homo sapiens, UniProt P08311).
T2 sequence (P08311 21-244): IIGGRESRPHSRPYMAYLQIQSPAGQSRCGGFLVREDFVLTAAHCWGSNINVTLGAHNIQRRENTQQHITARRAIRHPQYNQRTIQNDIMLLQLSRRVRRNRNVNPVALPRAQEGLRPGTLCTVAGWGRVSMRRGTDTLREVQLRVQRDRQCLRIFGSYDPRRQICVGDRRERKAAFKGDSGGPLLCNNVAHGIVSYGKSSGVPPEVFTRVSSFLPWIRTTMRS
The experiment can be described thus: Kinetic assay: inhibition of Cathepsin G. The experiment is classed as biochemical. The following applies: Table V.

For the next experiment, the target named is Cathepsin B (Homo sapiens, UniProt P07858). The experiment is described as follows: Kinetic assay: inhibition of Cathepsin B. The experiment is classed as biochemical. As to conditions: Table IV.
From the text: [Worded in the source for another target; this target is reported under the same test.] as §1, with “Table II summarizes results from kinetic experiments that measured the inhibition of the 20S proteasome by compounds having the formula of compound (1) or (2). P,” for “P,”

The subject of another experiment is mice. The experiment can be described thus: DTH response (contact sensitivity, ear swelling) in mice. The experiment is classed as in vivo, mouse. As to conditions: oral, ear swelling approximately 18 hours after challenge. From the text:
Compounds can also be tested for their ability to inhibit a delayed-type hypersensitivity response in mice. Contact hypersensitivity is a manifestation of an in vivo T-cell mediated immune response (Friedmann, Curr. Opinion Immunology, 1:690693 (1989)). Although the exact molecular mechanisms that regulate the cellular interactions and vascular changes involved in the response remain obscure, it is clear that the process is dependent upon the interplay of soluble mediators, adhesion molecules, and the cytokine network (Piguet, et al., J. Exp. Med. 173:673-679 (1991); Nickoloff, et al. J. Invest. Dermatol. 94:151S-157S (1990)). NF-κB, by mediating events such as the production of cytokines and the induction and utilization of cell-surface adhesion molecules, is a central and coordinating regulator involved in immune responses.
Naive nice were sensitized by the application of 20 μL of a 0.5% (v/v) solution of 2,4-dinitrofluorobenzene in 4:1 acetone/olive oil to both of the rear limb footpads. This procedure is performed on two consecutive days, which are referred to as days 0 and 1.
The efferent phase of the contact sensitivity response was elicited on day 5 by the application of 10 μL of a 0.2% (v/v) solution of 2,4-dinitrofluorobenzene in 4:1 acetone/olive oil to both sides of the left ear. The contralateral control ear was treated on both sides with 10 μL of vehicle only. The mice were lightly anaesthetized for this procedure by the intraperitoneal (i.p.) injection of a mixture of ketamine.(80 mg/kg, Henry Schein) and xylazine (16 mg/kg, Henry Schein). […]
Approximately 18 hours after the challenge, ear swelling was determined by measuring both the control and the experimental ear using a Mitutoyo Digital micrometer. The absolute difference in thickness of the experimental (left) ears vs. the control (right) ears was determined for each treatment group. Efficacy was determined by comparing this difference in thickness to the difference calculated for the vehicle control group.

A further experiment relates to C2C12 cells. The experiment is described as follows: Inhibition of protein degradation in C2C12 cells. The experiment is classed as cell-based, mouse. The following applies: Mus musculus, C2C12; 35S-methionine labelled cells; percent decrease in TCA soluble radioactivity; media with 50% serum. How it is done: One approach to testing drug candidates for their ability to inhibit the ATP-ubiquitin-dependent degradative process is to measure proteolysis in cultured cells (Rock, et al., Cell 78:761 (1994)). For example, the degradation of long-lived intracellular proteins can be measured in mouse C2C12 myoblast cells. Cells are incubated with ^35S-methionine for 48 hours to label long-lived proteins and then chased for 2 hours with medium containing unlabeled methionine. After the chase period, the cells are incubated for 4 hours in the presence or absence of the test compound. The amount of protein degradation in the cell can be measured by quantitating the trichloroacetic acid soluble radioactivity released from the pre-labeled proteins into the growth medium (an indicator of intracellular proteolysis).
C2C12 cells (a mouse myoblast line) were labelled for 48 hrs with ^35S-methionine. The cells were then washed and preincubated for 2 hrs in the same media supplemented with 2 mM unlabelled methionine. The media was removed and replaced with a fresh aliquot of the preincubation media containing 50% serum, and a concentration of the compound to be tested. The media was then removed and made up to 10% TCA and centrifuged. The TCA soluble radioactivity was counted. Inhibition of proteolysis was calculated as the percent decrease in TCA soluble radioactivity.

The subject of another experiment is NF-κB. The experiment is described as follows: Activation of NF-κB, electrophoretic mobility shift assay in TNF-α stimulated MG63 osteosarcoma cells. The experiment is classed as cell-based. The following applies: pretreatment for 1 hour, PRDII probe, FIG. 2. How it is done: Compounds can be tested for their ability to inhibit the activation of NF-κB by means of a DNA binding assay (Palombella, et al., Cell 78:773 (1994)). Whole-cell extracts are prepared from untreated or TNF-α treated cells that have been pretreated for 1 hour with the test compound. The DNA binding activity of NF-κB is measured by an electrophoretic mobility shift assay using the PRDII probe from the human IFN-β gene promoter.
This assay was performed as previously described (Palombella, et al. Cell, 78:773-785 (1994)). MG63 osteosarcoma cells were stimulated by treatment with TNF-α for the designated times. Whole cell extracts were prepared and analyzed by electrophoretic mobility shift assay using the PRDII probe from the human IFN-β gene promoter.
Background: A gel shift assay detects complexes by their altered migration in electrophoresis.

The mark [3] stands for this setting: Table II, SDS-activated 20S proteasome from rabbit muscle, substrate Suc-LLVY-AMC.

Where a SMILES comes first, the peptide text is derived from it. The star is where a group is joined. Cbz = O=C(OCc1ccccc1)*

From patent publication US6465433B1, “Boronic ester and acid compounds, synthesis and uses” (Millennium Pharmaceuticals, Inc., priority 1994, dated 2002) come the findings set out here.

In the case of `CC(C)C[C@H](NC(=O)[C@H](Cc1cccc2ccccc12)NC(=O)OCc1ccccc1)B1O[C@@H]2C[C@@H]3C[C@@H](C3(C)C)[C@]2(C)O1` [MG-267], the Ki at Human Leukocyte Elastase is 150 nM; in experiment [1] it was 2300 nM; in experiment [2] (setting [3]), 0.1 nM; in experiment [2] (Table V), 0.1 nM; on Cathepsin G it was 33000 nM.

As to `CC(C)C[C@H](NC(=O)[C@H](Cc1cccc2ccccc12)NS(=O)(=O)c1cccc2cccnc12)B(O)O` [MG-296, N-(8-quinoline)sulfonyl-β-(1-naphthyl)-L-alanine-L-leucine boronic acid], the Ki on Human Leukocyte Elastase came to 36 nM; on Cathepsin B it was 4000 nM; in experiment [2] (setting [3]) it was 1.7 nM; in experiment [2] (Table IV), 1.7 nM; in experiment [2] (Table V), 1.7 nM; on Cathepsin G, 9200 nM. Also, in the experiment with mice (dose 50 mg/kg), the “% Inhibition of the DTH response” value came to 60%. Also, the IC50 with C2C12 cells was 738 nM.

Turning to `CC(C)C[C@H](NC(=O)[C@H](CC(C)C)NC(=O)[C@H](CC(C)C)NC(=O)OCc1ccccc1)B(O)O` [MG-262], the Ki was 15 nM on Human Leukocyte Elastase; 6100 nM on Cathepsin B; 7 nM in experiment [1]; 0.035 nM in experiment [2] (setting [3]); 0.035 nM in experiment [2] (Table IV); 0.03 nM in experiment [2] (Table V). Further, the Ki at Cathepsin G was 55 nM. For the same compound, in the experiment on C2C12 cells, the IC50 came out at 280 nM.

Turning to `CC(C)C[C@@H](C=O)NC(=O)[C@H](CC(C)C)NC(=O)[C@H](CC(C)C)NC(=O)OCc1ccccc1` [MG-132, Cbz-L-Leu-L-Leu-L-Leu-H] (Cbz-Leu-Leu-Leu-aldehyde), the NF-κB binding activity entry in the experiment on NF-κB is recorded as “inhibited”.

Consider `CC(C)C[C@H](NC(=O)[C@H](Cc1ccccc1)NC(=O)N1CCOCC1)B(O)O` [MG-309, N-(4-morpholine)carbonyl-L-phenylalanine-L-leucine boronic acid], for which the Ki was 7000 nM at Human Leukocyte Elastase; 132000 nM on Cathepsin B; 0.82 nM in experiment [2] (setting [3]); 0.82 nM in experiment [2] (Table IV); 0.82 nM in experiment [2] (Table V); 4800 nM at Cathepsin G. Further, the “% Inhibition of the DTH response” value in the experiment on mice (dose 3 mg/kg) came to 40%. Further, the concentration for half-maximal inhibition (IC50) with C2C12 cells worked out at 210 nM.

On to `CSCCC(C=O)NC(=O)C(CC(C)C)NC(=O)C(CC(C)C)NC(C)=O` [MG-102, Ac-L-Leu-L-Leu-L-Met-H, reference compound] (Ac-Leu-Leu-Met-aldehyde; configuration not given here), for which the “activity against the 20S proteasome” value in experiment [2] was “inactive”. Further, in the experiment with NF-κB, the NF-κB binding activity entry was “did not inhibit”.

For orientation: Ki means a dissociation constant, usually derived from enzyme kinetics or from competition with a known ligand. Read a high Ki as a looser hold on the target. For orientation: IC50 means the midpoint of a concentration-inhibition curve.
